Reference: patent US9370508B2, “Imidazoquinolines as dual lipid kinase and mTOR inhibitors” (NOVARTIS AG, priority 2007, dated 2016)

Assays:
[1] = system: ribosomal protein S6 phosphorylation; assay: 96-well in-cell western assay of ribosomal protein S6 phosphorylation in HeLa cells; format: cell-based; conditions: Homo sapiens, 1 h, 60 min stimulation with nutrients in the presence or absence of 100 nM insulin, anti-phospho(Ser235-236)S6, read-out: induced phosphorylation of S6, mean IC50
Procedure: A 96-well “in-cell western” assay is used to quantitate the levels of ribosomal protein S6 phosphorylation following treatment of HeLa cells with compounds. HeLa cells are seeded on to 96-wells plates (5000 cells/well), cultured for 72 h prior to serum deprivation for 18 h, in a humidified environment of 5% CO2 at 37° C. throughout. Thereafter, they are incubated in 200 μL of starve-medium for 180 min prior to a 60 min stimulation with 200 μL of test-medium. All solutions are pre-warmed for 30 min; the 96-well plates are sealed (Millipore) and incubated in a non-CO2 incubator at 37° C. during the starvation and stimulation protocol. […] After a 48 h blocking step in Tris buffered saline pH=7.2 containing 0.1% Triton-X100 and 0.1% bovine serum albumin, at 4° C., fixed cells are incubated overnight at 4° C. with the anti-phospho(Ser235-236)S6 primary antibody (Cell Signaling Technologies #2211 [can be substituted with Cell Signaling Technologies #2215 to quantitate S6 phosphorylation at Ser240-244]; 50 μL at 1:300 in blocking-solution), washed (8×200 μL TBS) before 100 μL of europium-labeled anti-rabbit secondary antibody (Perkin-Elmer; 2.4 μg/mL) is added for 90 min at room temperature in the dark. After a final wash (8×200 μL TBS), 100 μL of Delphia™ Enhancement-solution is added to each well and the fluorescence quantified 120 min later using an Envision 2101 (Perkin-Elmer). […]

[2] = target: T1, mTOR enzyme (Homo sapiens, UniProt P42345); assay: K-LISA mTOR activity kit biochemical assay; conditions: GST-S6K1 substrate, 100 μM ATP, 30 minutes at 30° C., anti-phospho Thr389 detection; read-out: mTOR kinase activity, mean IC50
T1 construct: purchased Calbiochem CBA055
Procedure: This mixture is then transferred to a glutathione-coated 96-well plate pre-incubated with GST-S6K1 recombinant protein. Kinase reactions are initiated by adding kinase buffer containing 100 μM ATP and are incubated for 30 minutes at 30° C. mTOR activity is quantitated using an anti-phospho Thr389-HRP conjugate detection system. Wortmannin served as control compound for the mTOR kinase activity assay.

IC50 [1] [nM] | IC50 [2] [nM] | Compound
17 |  | Cn1c(=O)n(-c2ccc(C(C)(C)C#N)cc2)c2c3cc(-c4cnc5ccccc5c4)ccc3ncc21 [compound 1, 2-Methyl-2-[4-(3-methyl-2-oxo-8-quinolin-3-yl-2,3-dihydro-imidazo[4,5-c]quinolin-1-yl)-phenyl]-propionitrile]
11 | 1.4 | COc1ccc(-c2ccc3ncc4c(c3c2)n(-c2ccc(N3CCNCC3)c(C(F)(F)F)c2)c(=O)n4C)cn1 [compound 2, 8-(6-Methoxy-pyridin-3-yl)-3-methyl-1-(4-piperazin-1-yl-3-trifluoromethyl-phenyl)-1,3-dihydro-imidazo[4,5-c]quinolin-2-one]
